From patent publication US20100172925A1, “HLA-A2-RESTRICTED T-CELL EPITOPES OF THE RESPIRATORY SYNCYTIAL VIRUS FUSION PROTEIN AS PEPTIDE-BASED VACCINES” (priority 2009, published 2010)

Assays:
[1] = test system: CD8+ lymphocytes of peptide-immunized HLA-Tg B6 mice; experiment: CD8+ T cell proliferation (CFSE, cell dividing index) in peptide-immunized mice; format: in vivo, mouse; conditions: mice immunized s.c. twice with 50 μg peptide in IFA; 8 days of restimulation by the same peptide
Procedure: (§1) HLA-A2.1 transgenic C57BL/6 mice were anesthetized with isoflurane and primed with 1×10^7 pfu/50 μL of rAd-F0, rAd-LacZ or 1×10^4 live RSV B1 via the intranasal (i.n.) route. Twenty days later, animals were boosted i.n. with the same dose of respective immunogens. For peptide-based vaccination, transgenic mice were immunized subcutaneously (s.c.) with 50 μg of individual synthetic peptides emulsified in 100 μL of incomplete Freund's adjuvant (IFA) and then boosted s.c. with the same dose of respective peptides mixed with IFA one week later. Mice were sacrificed 7 days after the boost. The splenocytes were isolated and stimulated with synthetic CD8 epitope peptides in the presence of 5-(6)-carboxyfluorescein diacetate succinimidyl ester (CFSE) for 4 and 8 days. Proliferated CD4^+ or CD8^+ T cell counts were analyzed by flow cytometry (BD FACSCalibur) using PE-labeled specific antibody against CD4 or CD8, respectively. […]
(§2) To test the immunogenicity of these peptides, HLA-Tg B6 mice were immunized twice with individual IFA-emulsified peptide No. 3, 14, 23, or peptide 17 at day 0 and day 7. […] Proliferated CD4^+ and CD8^+ lymphocytes in response to CD8 epitope were counted by a flow cytometry analysis using specific anti-CD4 and CD8 antibodies conjugated with FITC, respectively. […]

HLA-A*0201 molecules = target: T1, HLA-A*0201 molecules (Homo sapiens, UniProt P04439, D140Y/D185E/D98H/E176V/E277Q/G131W/G231S/I119V/I121R/I166T/I218V/L300P/L318F/N151K/N90K/P208A/P217A/Q86G/Q94H/R138H/R169H/T345S); experiment: T2 cell-stabilization assay (T2-based HLA-A*0201 binding); conditions: T2 cells, peptide 50 μg/mL
T1 construct: T2 cell (which expressing HLA-A*0201)-stabilization assay; endogenous in cells; host or cells: T2 cells

[2] = test system: spleen lymphocytes of peptide-immunized HLA-Tg B6 mice; experiment: IFN-γ ELISPOT, peptide-restimulated splenocytes of peptide-immunized mice; format: in vivo, mouse
Procedure: as §1
Following 2 hr of incubation at room temperature, the plate was washed with 200 μL of wash buffer. […] The plates were washed with water, air-dried overnight, and the spots per culture were scored using the immunospot counting reader (C.T.L. IMMUNOSPOT, […] TECHNOLOGY LTD). Results were expressed as the number of cytokine-secreting cells per 5×10^5 splenocytes seeded at culture initiation. […]

[3] = test system: CD4+ lymphocytes of peptide-immunized HLA-Tg B6 mice; experiment: CD4+ T cell proliferation (CFSE, cell dividing index) in peptide-immunized mice; format: in vivo, mouse; conditions: mice immunized s.c. twice with 50 μg peptide in IFA; 8 days of restimulation by the same peptide
Procedure: as §1, §2

RSV-B1 = experiment: Viral load in lungs after live RSV-B1 challenge of peptide-immunized mice; format: in vivo, mouse; conditions: two doses of peptide; challenge 10^6 pfu live RSV-B1; 4 days post challenge
Procedure: as §1, with “The splenocytes were isolated and stimulated with synthetic CD8 epitope peptides in the presence of 5-(6)-carboxyfluorescein diacetate succinimidyl ester (CFSE) for 4 and 8 days.” left out
In FIG. 5, mice were immunized via the intranasal route twice with the immunogen as indicated before they were intranasally challenged with 10^6 pfu of live RSV B1. Viral plaques in the lungs of the individual mice were determined 4 days post the challenge using plaque-forming assay as described in the methods. Results were expressed as the plaque number for each mouse. […] 14 and subsequently challenged with 1×10^6 pfu of live RSV-B1 viruses, as compared to 282±116 plaques detected in the lung tissues of mice immunized with the adjuvant IFA alone. […]

**Q.** For “KVLDLKNYI (F214-222) [compound 13, 9-mer synthetic peptide from the F protein of RSV-B1 strain]”, which “CD8+ lymphocyte proliferation” value [1] is on record?
**A.** The value was “did not elicit CD8^+ lymphocyte proliferation”.

**Q.** And the “binding activity to HLA-A*0201 molecules (in words)” value (HLA-A*0201 molecules)?
**A.** The value was “strong binding activity”.

**Q.** And the “binding affinity higher than the baseline” value (HLA-A*0201 molecules; moderate binding affinity)?
**A.** Its value is 10%.

**Q.** What about the “IFN-γ level (ELISPOT, in words)” value [2] of the same sequence?
**A.** Its value is “background level of IFN-γ”.

**Q.** And the “CD4+ cell proliferation” value [3]?
**A.** The value was “did not manifest cell proliferation”.

**Q.** What about the “protection against live RSV challenge (lung viral plaques, in words)” value (RSV-B1) of the same sequence?
**A.** Its value is “not protected”.
